2 molecules from patent US8227508B2, “Dietary and pharmaceutical compositions containing carnosol and/or rosmanol and their uses” (DSM IP Assets B.V., priority 2006, dated 2012) can be followed below.

Experiment [1] has as its target T1, human serotonin re-uptake transporter (hSERT) (Homo sapiens, UniProt P31645).
T1 construct: host or cells: HEK-293
The experiment can be described thus: Serotonin uptake inhibition in HEK-293 cells expressing hSERT. The class given is cell-based. Conditions: transfected HEK-293 cells, [3H]-serotonin 20 nM, mean ± s.e.m. (n = 2). As to the method:
The cells were routinely grown in Dulbecco's Modified Eagle's Medium (Bioconcept) containing 10% dialysed foetal calf serum (Invitrogen), penicillin, streptomycin, L-glutamine and the antibiotic G418 and passaged by-trypsinisation. On the day of assay, cells from 80% confluent flasks were harvested by gentle washing with warm phosphate buffered saline (PBS). […] Serotonin uptake into the cells was determined by addition of radio-labelled [^3H]-serotonin (GE Healthcare) at a concentration of 20 nM, and incubation for 40 minutes at 37° C. with gentle shaking. At the end of this time unincorporated label was removed by filtration though Unifilter 96 GF/B plates (Perkin Elmer) using a Tomtec Mach III M cell harvester. The incorporated serotonin retained on the plates was quantified by liquid scintillation counting using Microscint-40/Topcount (Perkin Elmer).

In experiment [2] the target is T2, human glycine transporter 1b (GlyT1) (Homo sapiens, UniProt P48067).
T2 construct: expressed in transfected cells; host or cells: CHO
T2 sequence (P48067 1-652 isoform P48067-3): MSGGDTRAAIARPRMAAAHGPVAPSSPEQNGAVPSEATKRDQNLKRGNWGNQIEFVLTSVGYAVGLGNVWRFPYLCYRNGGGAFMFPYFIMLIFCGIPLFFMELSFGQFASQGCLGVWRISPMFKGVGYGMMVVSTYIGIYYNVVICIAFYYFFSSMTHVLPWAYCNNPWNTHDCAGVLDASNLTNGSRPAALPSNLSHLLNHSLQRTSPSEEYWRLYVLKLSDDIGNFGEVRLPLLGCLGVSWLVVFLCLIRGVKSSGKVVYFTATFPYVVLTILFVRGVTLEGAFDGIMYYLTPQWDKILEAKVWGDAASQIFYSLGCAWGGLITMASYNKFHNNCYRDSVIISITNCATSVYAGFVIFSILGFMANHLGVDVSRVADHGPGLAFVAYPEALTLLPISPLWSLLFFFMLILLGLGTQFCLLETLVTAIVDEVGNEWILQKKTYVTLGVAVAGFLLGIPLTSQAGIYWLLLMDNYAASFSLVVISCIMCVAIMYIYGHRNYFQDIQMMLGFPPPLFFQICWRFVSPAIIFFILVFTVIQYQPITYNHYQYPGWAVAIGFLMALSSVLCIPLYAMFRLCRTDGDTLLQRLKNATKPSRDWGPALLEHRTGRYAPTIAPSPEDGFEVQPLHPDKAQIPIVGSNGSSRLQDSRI
The experiment can be described thus: Glycine uptake inhibition in CHO cells expressing GlyT1. The class given is cell-based. Conditions: 60 nM [3H]-glycine. How it is done: CHO cells stably expressing the human glycine transporter 1b cDNA (GlyT1) were routinely grown in Dulbecco's Modified Eagle's Medium (Invitrogen, Carlsbad, USA) containing 10% dialysed foetal calf serum, penicillin, streptomycin, proline and the antibiotic G418. Cells were harvested by trypsinisation one day prior to the assay and were seeded in the above mentioned medium. Immediately prior to the assay, the medium was replaced by uptake buffer containing 150 mM NaCl, 1 mM CaCl2, 2.5 mM KCl, 2.5 mM MgCl2, 10 mM Glucose and 10 mM N-2-hydroxyethylpiperazine-N′-2-ethanesulfonic acid (HEPES buffer).
Glycine uptake into the cells was determined by addition of 60 nM radiolabelled [^3H]-glycine (Amersham Biosciences GE Healthcare, Slough, UK) and incubation for 30 minutes at room temperature. Following removal of unincorporated label by gentle washing three times with the above buffer, incorporated glycine was quantified by liquid scintillation counting.

Experiment [3] addresses T3, monoamine oxidase A (MAO-A) (Homo sapiens, UniProt P21397).
T3 sequence (P21397 1-527): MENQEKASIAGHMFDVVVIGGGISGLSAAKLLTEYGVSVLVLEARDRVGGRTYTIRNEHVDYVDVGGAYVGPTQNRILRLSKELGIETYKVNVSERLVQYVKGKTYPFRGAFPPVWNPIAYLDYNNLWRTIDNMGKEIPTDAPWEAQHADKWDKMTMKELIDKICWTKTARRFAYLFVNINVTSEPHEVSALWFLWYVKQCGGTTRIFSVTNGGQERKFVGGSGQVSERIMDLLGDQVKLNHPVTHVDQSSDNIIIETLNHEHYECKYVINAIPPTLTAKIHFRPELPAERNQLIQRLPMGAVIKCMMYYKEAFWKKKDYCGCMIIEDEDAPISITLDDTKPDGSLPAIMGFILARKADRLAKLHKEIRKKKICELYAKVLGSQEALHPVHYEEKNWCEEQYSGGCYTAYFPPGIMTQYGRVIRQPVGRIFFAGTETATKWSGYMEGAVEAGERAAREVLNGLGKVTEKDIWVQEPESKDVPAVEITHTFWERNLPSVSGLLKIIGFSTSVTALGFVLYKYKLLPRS
The experiment is described as follows: Monoamine oxidase A inhibition (p-tyramine substrate, HRP/vanillic acid readout). The class given is biochemical. Conditions: mean ± s.e.m., n = 3. As to the method:
The organic amines p-tyramine or benzylamine were used as substrates for the monoamine oxidase A (MAO-A) and B (MAO-B) enzymes respectively. The H2O2 produced by this reaction was quantified by reaction with vanillic acid, catalysed by horse radish peroxidase (HRP).
The reactions were carried out at 37° C. in polystyrene microtitre plates. The MAO enzymes (final concentration 2 U/ml) were mixed with either p-tyramine (Sigma, final concentration 0.5 mM) or benzylamine (Sigma, final concentration 0.5 mM) as appropriate and the chromogenic solution (containing vanillic acid (Fluka), 4-aminoantipyrine (Fluka) and horse radish peroxidase (Sigma), final concentrations 0.25 mM, 0.125 mM and 1 U/ml, respectively) in 0.2 M potassium phosphate buffer, pH 7.6. After 40 min incubation, plates were analysed in a microtitre plate absorbance reader, e.g. Spectramax M5 (Molecular Devices Corporation), at 495 nm.
The effects of carnosol and rosmanol on the monoamine oxidase enzymes were determined by their inclusion in the assay at a range of concentrations between 0.03 and 100 μM for 10 minutes prior to and during the incubation with substrate. To determine the effect of the compounds on the HRP-catalysed portion of the reaction, the MAO enzyme was replaced by H2O2 (Molecular Probes, final concentration 50 μM). […]

T1 sequence (P31645 whole entry): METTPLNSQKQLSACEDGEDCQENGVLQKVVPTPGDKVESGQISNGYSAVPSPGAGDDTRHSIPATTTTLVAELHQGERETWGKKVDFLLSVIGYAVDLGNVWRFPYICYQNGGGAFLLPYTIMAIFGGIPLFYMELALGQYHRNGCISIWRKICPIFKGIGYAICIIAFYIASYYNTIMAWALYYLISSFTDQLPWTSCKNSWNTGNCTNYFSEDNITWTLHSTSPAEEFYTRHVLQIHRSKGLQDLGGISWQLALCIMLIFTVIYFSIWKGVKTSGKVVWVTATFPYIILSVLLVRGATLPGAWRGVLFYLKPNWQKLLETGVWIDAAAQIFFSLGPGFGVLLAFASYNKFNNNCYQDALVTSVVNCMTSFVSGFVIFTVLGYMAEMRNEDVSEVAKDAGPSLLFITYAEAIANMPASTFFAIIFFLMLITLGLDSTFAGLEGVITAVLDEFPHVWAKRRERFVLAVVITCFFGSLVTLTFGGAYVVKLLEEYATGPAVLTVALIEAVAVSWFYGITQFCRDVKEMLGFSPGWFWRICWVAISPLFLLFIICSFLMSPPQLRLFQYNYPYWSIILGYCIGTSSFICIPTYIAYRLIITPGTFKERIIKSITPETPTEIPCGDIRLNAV

For `CC(C)c1cc2c(c(O)c1O)[C@@]13CCCC(C)(C)[C@@H]1C[C@@H]2OC3=O` [Carnosol, carnosol], the values for the IC50 in experiment [1], in experiment [2] (read-out: IC50 for tritiated glycine uptake) and in experiment [3] were 26.6 ± 6.9 µM, 29.3 µM and 4 ± 0.1 µM, respectively.
Take `CC(C)c1cc2c(c(O)c1O)[C@@]13CCCC(C)(C)[C@@H]1[C@H](OC3=O)[C@H]2O` [Rosmanol, rosmanol]: the IC50 amounted to 23.2 ± 9.7 µM in experiment [1] and 3.02 ± 0.48 µM in experiment [3]. Besides, the “IC50 for tritiated glycine uptake (result in words)” value in experiment [2] is “inactive”.
